Values of other authors as cited in patent publication US7276520B2, “Bicyclic piperidine derivatives as melanocortin-4 receptor agonists” (Merck & Co., Inc., priority 2003, dated 2007).

Tests used:
erectile dysfunction = conditions: for duration of effect / onset of action: after an oral dose; for share of men/patients in whom the drug is effective (adequate response): oral
[1] = test system: males with psychogenic erectile dysfunction
[2] = in vivo, po

Compound	duration of effect (erectile dysfunction)	onset of action (erectile dysfunction) [min]	share of men/patients in whom the drug is effective (adequate response) (erectile dysfunction)	response rate ([1]; injected intramuscularly or subcutaneously, psychogenic erectile dysfunction) [%]	duration of action ([1]; subcutaneous injection)	time to onset of erection ([1]; subcutaneous injection) [min]	absorption into the systemic circulation [2]
Cc1ccc(N(CC2=NCCN2)c2cccc(O)c2)cc1 [phentolamine]	2 h	5 to 30	35-40%	–	–	–	–
CCCc1nn(C)c2c(=O)[nH]c(-c3cc(S(=O)(=O)N4CCN(C)CC4)ccc3OCC)nc12 [sildenafil]	about 4 hours	30 to 60	about 70%	–	–	–	–
Ac-Nle-c[Asp-His-DPhe-Arg-Trp-Lys]-NH2 [MT-II]	–	–	–	75	approximately 2.5 hours	10 to 20	not absorbed into the systemic circulation
